Like-named read-outs stand apart in the source and are kept apart here. Some results are limits rather than exact numbers.

The target of one assay is T1, SOS1 (Homo sapiens, UniProt Q07889).
T1 construct: HIS-SOS1cat (160 nM; Cytoskeleton, US); His (N); purchased Cytoskeleton
T1 sequence (Q07889 564-1049 limits assumed): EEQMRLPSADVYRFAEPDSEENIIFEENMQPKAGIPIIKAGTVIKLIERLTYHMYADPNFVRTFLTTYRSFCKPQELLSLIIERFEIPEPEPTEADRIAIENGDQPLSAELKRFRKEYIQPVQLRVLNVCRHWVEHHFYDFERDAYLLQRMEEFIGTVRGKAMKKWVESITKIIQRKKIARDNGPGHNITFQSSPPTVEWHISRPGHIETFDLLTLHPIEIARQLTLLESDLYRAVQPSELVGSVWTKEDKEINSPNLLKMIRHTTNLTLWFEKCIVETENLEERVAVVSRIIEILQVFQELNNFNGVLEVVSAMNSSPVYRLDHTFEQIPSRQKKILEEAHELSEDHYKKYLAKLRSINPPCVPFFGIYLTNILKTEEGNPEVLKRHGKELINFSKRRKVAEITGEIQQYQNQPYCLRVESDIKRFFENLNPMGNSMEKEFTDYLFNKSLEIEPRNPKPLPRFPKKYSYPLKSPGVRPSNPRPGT
Put plainly: SOS-catalyzed nucleotide exchange assay (HTRF, SOS1-mediated GTP loading of KRAS G12D). It counts as biochemical. The following applies: GST-KRAS G12D, HIS-SOS1cat, compound 128 pM to 10 µM; read-out: SOS-catalyzed nucleotide exchange assay. For orientation: TR-FRET usually uses a lanthanide donor and a delayed reading to cut background.

In assay [1] the test system is lung cancer cell line NCI-H358 having the KRAS G12C variant. Put plainly: Cancer cell growth inhibition, 3D spheroids (CellTiter-Glo 3D). Type of assay: cell-based. The settings on record: 3D spheroids, 0.002-10 µM, 5 days, read-out: H358 cell viability. Summed up: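 NCI-H358 (KRAS G12C) spheroids lysed with CellTiter-Glo 3D for 30 min with shaking after 10 min at room temperature. Growth in compound-treated wells expressed relative to untreated wells set to 100%.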
In general terms: ATP-based viability assays read luminescence as a measure of living cells.

The target in the next assay is T2, KRAS G12C::SOS1 (Homo sapiens, UniProt Q07889).
T2 construct: purchased CISBIO 64KRASG12PEH
T2 sequence (Q07889 1-1333): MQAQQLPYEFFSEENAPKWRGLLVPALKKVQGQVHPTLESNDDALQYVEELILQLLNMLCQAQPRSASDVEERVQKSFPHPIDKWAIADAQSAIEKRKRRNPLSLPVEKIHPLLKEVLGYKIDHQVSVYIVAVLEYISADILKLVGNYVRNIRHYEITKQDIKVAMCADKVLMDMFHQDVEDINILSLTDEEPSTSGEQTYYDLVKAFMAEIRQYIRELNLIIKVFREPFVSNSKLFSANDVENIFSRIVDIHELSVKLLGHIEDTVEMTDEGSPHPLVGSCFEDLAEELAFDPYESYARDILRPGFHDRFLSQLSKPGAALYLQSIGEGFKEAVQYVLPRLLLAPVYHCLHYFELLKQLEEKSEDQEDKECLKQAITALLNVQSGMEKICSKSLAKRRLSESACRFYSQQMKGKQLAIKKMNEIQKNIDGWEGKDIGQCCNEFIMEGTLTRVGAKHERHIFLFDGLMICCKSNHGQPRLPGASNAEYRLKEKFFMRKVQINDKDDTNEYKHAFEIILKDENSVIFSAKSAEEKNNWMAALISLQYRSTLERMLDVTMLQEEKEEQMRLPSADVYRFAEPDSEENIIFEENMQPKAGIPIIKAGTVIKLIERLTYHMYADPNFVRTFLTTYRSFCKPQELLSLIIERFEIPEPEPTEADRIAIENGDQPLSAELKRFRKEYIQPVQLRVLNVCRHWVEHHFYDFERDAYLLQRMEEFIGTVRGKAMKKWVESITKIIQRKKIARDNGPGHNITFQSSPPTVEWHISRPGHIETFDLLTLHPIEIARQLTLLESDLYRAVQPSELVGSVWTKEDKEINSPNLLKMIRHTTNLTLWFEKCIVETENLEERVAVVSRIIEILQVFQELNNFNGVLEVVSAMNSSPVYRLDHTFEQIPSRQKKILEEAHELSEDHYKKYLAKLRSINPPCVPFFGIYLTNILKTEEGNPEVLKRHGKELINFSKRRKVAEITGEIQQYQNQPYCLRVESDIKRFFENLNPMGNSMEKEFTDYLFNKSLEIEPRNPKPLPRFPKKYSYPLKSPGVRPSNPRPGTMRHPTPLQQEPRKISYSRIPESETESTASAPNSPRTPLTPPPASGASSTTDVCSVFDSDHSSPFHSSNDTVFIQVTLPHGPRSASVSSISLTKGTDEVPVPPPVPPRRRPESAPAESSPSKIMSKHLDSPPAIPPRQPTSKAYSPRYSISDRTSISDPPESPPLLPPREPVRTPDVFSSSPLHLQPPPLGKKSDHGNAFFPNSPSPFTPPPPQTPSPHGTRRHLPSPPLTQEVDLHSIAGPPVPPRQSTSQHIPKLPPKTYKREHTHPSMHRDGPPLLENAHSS
The assay can be described thus: KRAS G12C::SOS1 protein-protein interaction (PPI) inhibition assay (HTRF). The settings on record: 8 concentrations from 3 µM, three replicates; read-out: KRAS G12C::SOS1 PPI. Type of assay: binding. Summed up: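 Compounds, at eight 3-fold dilutions from 3 µM, were mixed with GTP-loaded Tag1-KRAS G12C, Tag2-SOS1 and a terbium-cryptate donor plus XL665 acceptor antibody pair. After 2 h at room temperature, time-resolved FRET reported the KRAS–SOS1 interaction.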

The subject of assay [2] is lung cancer cell line H358 having the KRAS G12S variant. Put plainly: SynergyScreen combination efficacy (ATPlite 1Step cell viability). The settings on record: for Synergy 2: difference between Synergy 1 and cell death rate of Ex. 1-2 alone.
Description: In order to measure cell viability, each well was treated with 24 µL of ATPlite 1Step™ (PerkinElmer) solution, then mixed for 2 minutes, and reacted by blocking light for 5 minutes, and then the luminescence signal was measured using an Envision multilabel reader (PerkinElmer).

Regarding `C[C@@H](NC(=O)c1ccc(=O)n(-c2cncc(-c3cnnn3C)c2)n1)c1cccc(C(F)(F)F)c1F` [Example 1-2, N-[(1R)-1-[2-fluoro-3-(trifluoromethyl)phenyl]ethyl]-1-[5-(3-methyltriazol-4-yl)-3-pyridyl]-6-oxo-pyridazine-3-carboxamide], the IC50 on SOS1 is 50 to 150 nM; in assay [1] (Homo sapiens, NCI-H358, 120 h), under 1000 nM; at KRAS G12C::SOS1, 50 to 150 nM. The “EFFECT20 (concentration that induces 20% cell death), applied as final treatment concentration” value is 1854 nM in assay [2] (culture time 72 h) and 652 nM in assay [2] (culture time 120 h).
For the compound `O=c1cc(-c2ccc(O)c(O)c2O)oc2ccccc12` [Example 2-D08, 2-D08], the “Synergy 2” value in assay [2] (Ex. 1-2 log M -6.3, culture time 120 h) is “+ (less than 10%)”.
On to `C[C@@H](NC(=O)c1cc(C2CC2)c(=O)n(-c2cncc(-c3cnnn3C)c2)c1)c1cccc(C(F)(F)F)c1F` [Example 7, (R)-3-cyclopropyl-N-(1-(2-fluoro-3-(trifluoromethyl)phenyl)ethyl)-5'-(1-methyl-1H-1,2,3-triazol-5-yl)-2-oxo-2H-[1,3'-bipyridine]-5-carboxamide], for which the IC50 was under 50 nM on SOS1; under 1000 nM in assay [1] (Homo sapiens, NCI-H358, 120 h); under 50 nM at KRAS G12C::SOS1.
As to `[2H]C([2H])([2H])c1cc(C(=O)N[C@H](C)c2cccc(C(F)(F)F)c2F)nn(-c2cncc(-c3cnnn3C)c2)c1=O` [Example 7-1, N-{(R)-1-[2-fluoro-3-(trifluoromethyl)phenyl]ethyl}-5-[methyl-trideuterio]-1-[5-(1-methyl-1H-1,2,3-triazol-5-yl)-3-pyridyl]-6-oxo-1,6-dihydropyridazine-3-carboxamide], the IC50 on SOS1 is 50 to 150 nM; in assay [1] (Homo sapiens, NCI-H358, 120 h) it was under 1000 nM; at KRAS G12C::SOS1, 50 to 150 nM.
With `[2H]C([2H])([2H])c1cc(C(=O)N[C@H](C)c2cccc(C(F)F)c2F)nn(-c2cncc(-c3cnnn3C)c2)c1=O` [Example 7-2, N-{(R)-1-[3-(difluoromethyl)-2-fluorophenyl]ethyl}-5-[methyl-trideuterio]-1-[5-(1-methyl-1H-1,2,3-triazol-5-yl)-3-pyridyl]-6-oxo-1,6-dihydropyridazine-3-carboxamide], the IC50 is 50 to 150 nM at SOS1; under 1000 nM in assay [1] (Homo sapiens, NCI-H358, 120 h); under 50 nM at KRAS G12C::SOS1.
The corresponding values for `Cc1cc(C(=O)N[C@H](C)c2cccc(C(F)(F)F)c2F)nn(-c2cncc(-c3cnnn3C)c2)c1=O` [Example 7-3, N-{ (R)-1-[2-fluoro-3-(trifluoromethyl)phenyl]ethyl}-5-methyl-1-[5-(1-methyl-1H-1,2,3-triazol-5-yl)-3-pyridyl]-6-oxo-1,6-dihydropyridazine-3-carboxamide] are 50 to 150 nM, under 1000 nM and under 50 nM.
The corresponding values for `C[C@@H](NC(=O)c1cc(C2CC2)c(=O)n(-c2cncc(-c3cnnn3C)c2)n1)c1cccc(C(F)(F)F)c1F` [Example 7-4, N-{(R)-1-[2-fluoro-3-(trifluoromethyl)phenyl]ethyl}-5-cyclopropyl-1-[5-(1-methyl-1H-1,2,3-triazol-5-yl)-3-pyridyl]-6-oxo-1,6-dihydropyridazine-3-carboxamide] are under 50 nM, under 1000 nM and under 50 nM.
Turning to `C[C@@H](NC(=O)c1cc(C2=CCCCC2)c(=O)n(-c2cncc(-c3cnnn3C)c2)c1)c1cccc(C(F)(F)F)c1F` [Example 15, N-{(R)-1-[2-fluoro-3-(trifluoromethyl)phenyl]ethyl}-5-(1-cyclohexen-1-yl)-5'-(1-methyl-1H-1,2,3-triazol-5-yl)-6-oxo-1H-[1,3'-bipyridyl]-3-carboxamide], the IC50 is under 50 nM on SOS1; under 1000 nM in assay [1] (Homo sapiens, NCI-H358, 120 h); under 50 nM at KRAS G12C::SOS1.
As for `CNC(=O)c1cc(Oc2ccc(NC(=O)Nc3ccc(Cl)c(C(F)(F)F)c3)cc2)ccn1` [Sorafenib, sorafenib], the “Synergy 2” value in assay [2] (Ex. 1-2 log M -5.9, culture time 72 h) was “+ (less than 10%)”.
Consider `C[C@]12C=CC(=O)C=C1CC[C@@H]1[C@@H]2[C@@H](O)C[C@@]2(C)[C@H]1CC[C@]2(O)C(=O)CO` [prednisolone], for which the “Concentration (log M) Anticancer agent” value in assay [2] (words printed in place of a concentration, culture time 72 h, with Ex. 1-2 log M -5.9) is on record as “No Concentration -dependent change”.
As to “(R)-3-bromo-N-(1-(2-fluoro-3-(trifluoromethyl)phenyl)ethyl)-5'-(1-methyl-1H-1,2,3-triazol-5-yl)-2-oxo-2H-[1,3'-bipyridine]-5-carboxamide [Example 1-22]”, the IC50 on SOS1 was over 150 nM; in assay [1], under 1000 nM; at KRAS G12C::SOS1 it was 50 to 150 nM.
As for “N-[(1R)-1-[3-(1,1-difluoro-2-hydroxy-ethyl)-2-fluoro-phenyl]ethyl]-1-[5-(2-methylpyrazol-3-yl)-3-pyridyl]-6-oxo-pyridazine-3-carboxamide [Example 1-16]”, the IC50 was 50 to 150 nM on SOS1, under 1000 nM in assay [1] and 50 to 150 nM on KRAS G12C::SOS1.
“N-[(1R)-1-[5-amino-3-(difluoromethyl)-2-fluoro-phenyl]ethyl]-5-methyl-1-[5-(3-methyltriazol-4-yl)-3-pyridyl]-6-oxo-pyridazine-3-carboxamide [Example 2-3]”: the figures for the IC50 (on SOS1; in assay [1]; at KRAS G12C::SOS1) were under 50 nM, under 1000 nM and under 50 nM, respectively.

The values above are taken from patent EP4667464A1 (Cyrus Therapeutics Inc., priority 2023, dated 2024).
